The data set in a line: Hygroscopicity: moisture pick up of antiperspirant active in controlled relative humidity. The note with it: at 86% RH, 5 days, 20° C. Format: physicochemical. As for the experimental part:
One way to evaluate the hygroscopic nature of an antiperspirant active is to determine the equilibrium moisture pick up of the active after 5 days in a controlled relative humidity environment. Specific humidity chambers can be created placing saturated salt solutions in desiccators at a specific temperature. Different salts are used to create different humidities, for example potassium chloride can be used to make an 86% relative humidity (RH) environment at 20° C. In general there is an increase in moisture pick up as humidity is increased for the antiperspirant actives shown, however there are clear differences in slope and amount of moisture pick up at high humidity. Materials with higher slope and larger increases at high humidity (i.e. 86% RH) are considered to be more hygroscopic. The aluminum zirconium trichlorohydrate active (metal to chloride ratio=1.6) from Inventive Example 1 is the least hygroscopic (28% moisture pick up at 86% RH) with the aluminum zirconium tetrachlorohydrate active (metal to chloride ratio=1.2) being substantially more hygroscopic (40% moisture pick up at 86% RH). […] This may explain the substantial difference observed in the amount of sweat measured between Inventive Examples 1 and 2. […]

The record followed here is US20140260103A1, “Methods of Making Solid Stick Antiperspirant Compositions” (The Procter & Gamble Company, priority 2013, published 2014).

With aluminum zirconium tetrachlorohydrate, the “moisture pick up (hygroscopicity)” value is reported as 40%.

For aluminum zirconium trichlorohydrate, the “moisture pick up (hygroscopicity)” value is recorded as 28%.
